We go through ten compounds from PubChem BioAssay AID1259407 (Chemical Carcinogenesis Research Information System (CCRIS), 2018).

Calls of active or inactive are those of the source. How the calls were made is not given here.

The test system of the data set is CCRIS mutagenicity, Ames/micronucleus/aberration tests. The experiment in a line: CCRIS mutagenicity studies.
Where [1] appears, read: Test System: AMES SALMONELLA TYPHIMURIUM, Strain/Indicator: TA98, Metabolic Activation: NONE, Method: STANDARD PLATE.
Setting [2] is: Test System: AMES SALMONELLA TYPHIMURIUM, Strain/Indicator: TA100, Metabolic Activation: NONE, Method: STANDARD PLATE.
Where [3] appears, read: Test System: AMES SALMONELLA TYPHIMURIUM, Strain/Indicator: TA1535, Metabolic Activation: NONE, Method: STANDARD PLATE.
Setting [4] is: Test System: AMES SALMONELLA TYPHIMURIUM, Strain/Indicator: TA1537, Metabolic Activation: NONE, Method: STANDARD PLATE.
The mark [5] stands for this setting: Test System: AMES SALMONELLA TYPHIMURIUM, Strain/Indicator: TA98, Metabolic Activation: NONE, Method: PREINCUBATION
Where [6] appears, read: Test System: AMES SALMONELLA TYPHIMURIUM, Strain/Indicator: TA100, Metabolic Activation: NONE, Method: PREINCUBATION
The mark [7] stands for this setting: Test System: AMES SALMONELLA TYPHIMURIUM, Strain/Indicator: TA100, Metabolic Activation: RAT, LIVER, S-9, AROCLOR 1254, Method: STANDARD PLATE.
The mark [8] stands for this setting: Test System: AMES SALMONELLA TYPHIMURIUM, Strain/Indicator: TA98, Metabolic Activation: RAT, LIVER, S-9, AROCLOR 1254, Method: STANDARD PLATE.

Regarding `CN(C(=O)CCl)c1snc2ccccc12`, the mutagenic call under setting [1] was “inactive; negative”; the mutagenic call (Test System: AMES SALMONELLA TYPHIMURIUM, Strain/Indicator: TA98, Metabolic Activation: S-9, Method: STANDARD PLATE) is “inactive; negative”; the mutagenic call under setting [2] was “inactive; negative”; the mutagenic call (Test System: AMES SALMONELLA TYPHIMURIUM, Strain/Indicator: TA100, Metabolic Activation: S-9, Method: STANDARD PLATE) was “inactive; negative”; the mutagenic call under setting [3] was “inactive; negative”; the mutagenic call (Test System: AMES SALMONELLA TYPHIMURIUM, Strain/Indicator: TA1535, Metabolic Activation: S-9, Method: STANDARD PLATE) is “inactive; negative”. For the same compound, the mutagenic call under setting [4] is “inactive; negative” and the mutagenic call (Test System: AMES SALMONELLA TYPHIMURIUM, Strain/Indicator: TA1537, Metabolic Activation: S-9, Method: STANDARD PLATE) is “inactive; negative”.
As to `O=C(Cl)c1ccccc1Cl`, the mutagenic call is “inactive; negative” under setting [5]; “active; positive” (Test System: AMES SALMONELLA TYPHIMURIUM, Strain/Indicator: TA98, Metabolic Activation: RAT LIVER S-9, PCB, Method: PREINCUBATION); “active; positive” under setting [6]; “active; positive” (Test System: AMES SALMONELLA TYPHIMURIUM, Strain/Indicator: TA100, Metabolic Activation: RAT LIVER S-9, PCB, Method: PREINCUBATION); “active; positive” (Test System: AMES SALMONELLA TYPHIMURIUM, Strain/Indicator: TA104, Metabolic Activation: NONE, Method: PREINCUBATION); “active; positive” (Test System: AMES SALMONELLA TYPHIMURIUM, Strain/Indicator: TA104, Metabolic Activation: RAT LIVER S-9 PCB, Method: PREINCUBATION). Further, the mutagenic call was “inactive; negative” (Test System: E.COLI, Strain/Indicator: WP2 UVRA, Metabolic Activation: NONE, Method: PREINCUBATION) and “active; positive” (Test System: E.COLI, Strain/Indicator: WP2 UVRA, Metabolic Activation: RAT LIVER S-9, PCB, Method: PREINCUBATION).
With `CN(N=O)C(=O)Nc1ccc(F)cc1`, the mutagenic call (End Point: IN VITRO CHROMOSOMAL ABERRATIONS, Test System: CHINESE HAMSTER V79-E CELLS, Metabolic Activation: NONE) was “active; weakly positive”.
Consider `C1=CC2OC2C=CO1` (stereo not drawn), for which the mutagenic call was “inactive; negative” under setting [1]; “inactive; negative” (Test System: AMES SALMONELLA TYPHIMURIUM, Strain/Indicator: TA98, Metabolic Activation: RAT, LIVER, S-9, PHENOBARBITAL, Method: STANDARD PLATE); “inactive; negative” under setting [2]; “inactive; negative” (Test System: AMES SALMONELLA TYPHIMURIUM, Strain/Indicator: TA100, Metabolic Activation: RAT, LIVER, S-9, PHENOBARBITAL, Method: STANDARD PLATE); “inactive; negative” (Test System: AMES SALMONELLA TYPHIMURIUM, Strain/Indicator: TM677/8-AZAGUANINE, Metabolic Activation: NONE, Method: STANDARD PLATE).
As to `N[C@@H](Cc1ccc(N(CCCl)CCCl)cc1)C(=O)O`, the mutagenic call is “active; positive” (End Point: In vivo chromosomal aberrations, Test System: Bone marrow cells, Species: Mouse, Strain/Sex: C57B1/6 / Female (base p53+/-), Route: Oral (gavage)); “active; positive” (End Point: In vivo chromosomal aberrations, Test System: Splenocytes, Species: Mouse, Strain/Sex: C57B1/6 / Female (base p 53+/-), Route: Oral (gavage)); “inactive; negative” under setting [1]; “inactive; negative” (Test System: AMES SALMONELLA TYPHIMURIUM, Strain/Indicator: TA98, Metabolic Activation: RAT, LIVER, S-9, AROCLOR 1254 (30%), Method: PREINCUBATION); “active; positive” (Test System: AMES SALMONELLA TYPHIMURIUM, Strain/Indicator: TA100, Metabolic Activation: HAMSTER, LIVER, S-9, AROCLOR 1254 (30%), Method: PREINCUBATION); “active; positive” under setting [6]. In addition, the mutagenic call was “active; positive” under setting [2]; “active; positive” (Test System: AMES SALMONELLA TYPHIMURIUM, Strain/Indicator: TA100, Metabolic Activation: RAT, LIVER, S-9, AROCLOR 1254 (30%), Method: PREINCUBATION); “active; positive” under setting [7]; “active; positive” under setting [3]; “active; positive” (Test System: AMES SALMONELLA TYPHIMURIUM, Strain/Indicator: TA1535, Metabolic Activation: RAT, LIVER, S-9, AROCLOR 1254, Method: STANDARD PLATE); “inactive; negative” under setting [4]. Further, the mutagenic call (Test System: E. COLI, Strain/Indicator: WP2 (HCR), Metabolic Activation: S-9, Method: STANDARD PLATE) is “inactive; negative”.
With `CC1(O)CC2CCC1(C)C2(C)C` (stereo not drawn), the mutagenic call reads like this: under setting [1], “inactive; negative”; under setting [8], “inactive; negative”; under setting [2], “inactive; negative”; under setting [7], “inactive; negative”.
Regarding `COC(=O)Nc1nc2ccc(Sc3ccccc3)cc2[nH]1`, the mutagenic call is, setting by setting: (Test System: AMES SALMONELLA TYPHIMURIUM, Strain/Indicator: TA97, Metabolic Activation: NONE, Method: STANDARD PLATE) “inactive; negative”; (Test System: AMES SALMONELLA TYPHIMURIUM, Strain/Indicator: TA97, Metabolic Activation: RAT, LIVER, S-9, AROCLOR 1254, Method: STANDARD PLATE) “inactive; negative”; under setting [1], “inactive; negative”; under setting [8], “inactive; negative”; under setting [2], “inactive; negative”; under setting [7], “inactive; negative”. In addition, the mutagenic call reads like this: (Test System: AMES SALMONELLA TYPHIMURIUM, Strain/Indicator: TA102, Metabolic Activation: NONE, Method: STANDARD PLATE) “inactive; negative”; (Test System: AMES SALMONELLA TYPHIMURIUM, Strain/Indicator: TA102, Metabolic Activation: RAT, LIVER, S-9, AROCLOR 1254, Method: STANDARD PLATE) “inactive; negative”.
In the case of `OCCCCCl`, the mutagenic call under setting [5] is “inactive; negative”; the mutagenic call under setting [6] is “active; positive”; the mutagenic call (Test System: AMES SALMONELLA TYPHIMURIUM, Strain/Indicator: TA100, Metabolic Activation: RAT, LIVER, S-9, KANECHLOR 500, Method: PREINCUBATION) was “active; positive”.
On to `Brc1c2ccccc2cc2c1ccc1ccccc12`, for which the mutagenic call (Test System: AMES SALMONELLA TYPHIMURIUM, Strain/Indicator: TA100, Metabolic Activation: RAT, LIVER, S-9, PCB, Method: STANDARD PLATE) is “active; positive”.
As for `Cc1cccc(N)c1C`, the mutagenic call reads like this: (Test System: AMES SALMONELLA TYPHIMURIUM, Strain/Indicator: TA97, Metabolic Activation: HAMSTER, LIVER, S-9, AROCLOR 1254 (10%), Method: PREINCUBATION) “inactive; negative”; (Test System: AMES SALMONELLA TYPHIMURIUM, Strain/Indicator: TA97, Metabolic Activation: NONE, Method: PREINCUBATION) “inactive; negative”; (Test System: AMES SALMONELLA TYPHIMURIUM, Strain/Indicator: TA97, Metabolic Activation: RAT, LIVER, S-9, AROCLOR 1254 (10%), Method: PREINCUBATION) “inactive; negative”; (Test System: AMES SALMONELLA TYPHIMURIUM, Strain/Indicator: TA98, Metabolic Activation: HAMSTER, LIVER, S-9, AROCLOR 1254 (10%), Method: PREINCUBATION) “active; positive”; under setting [5], “inactive; negative”; (Test System: AMES SALMONELLA TYPHIMURIUM, Strain/Indicator: TA98, Metabolic Activation: RAT, LIVER, S-9, AROCLOR 1254 (10%), Method: PREINCUBATION) “inactive; negative”. Moreover, the mutagenic call is, setting by setting: (Test System: AMES SALMONELLA TYPHIMURIUM, Strain/Indicator: TA100, Metabolic Activation: HAMSTER, LIVER, S-9, AROCLOR 1254 (10%), Method: PREINCUBATION) “active; positive”; under setting [6], “inactive; negative”; (Test System: AMES SALMONELLA TYPHIMURIUM, Strain/Indicator: TA100, Metabolic Activation: RAT, LIVER, S-9, AROCLOR 1254 (10%), Method: PREINCUBATION) “inactive; negative”; (Test System: AMES SALMONELLA TYPHIMURIUM, Strain/Indicator: TA1535, Metabolic Activation: HAMSTER, LIVER, S-9, AROCLOR 1254 (10%), Method: PREINCUBATION) “inactive; negative”; (Test System: AMES SALMONELLA TYPHIMURIUM, Strain/Indicator: TA1535, Metabolic Activation: NONE, Method: PREINCUBATION) “inactive; negative”; (Test System: AMES SALMONELLA TYPHIMURIUM, Strain/Indicator: TA1535, Metabolic Activation: RAT, LIVER, S-9, AROCLOR 1254 (10%), Method: PREINCUBATION) “inactive; negative”.
